In assay [1] the target is Histone deacetylase (HDAC1 and HDAC2) (Homo sapiens, UniProt Q13547+Q92769). The assay can be described thus: Inhibitory activity was tested against histone deacetylase (HDAC). It counts as protein assay.
The next assay has as its system HT-1080. The assay can be described thus: Antiproliferative activity against HT1080 (human fibrosarcoma) cell line. It counts as functional, cell-based.
A further assay deals with MDA-MB-435. The experiment in a line: cells. It counts as functional, cell-based. Conditions: Homo sapiens.
For assay [2], the system named is Mus musculus. The experiment in a line: Antitumor activity against HT1080 cell line in mouse xenograft model after orally dosed once every other day at 30 mg/kg. It counts as functional. The following applies: HT-1080, route oral.
The test system of assay [3] is Mus musculus. The assay can be described thus: Antitumor activity against HT1080 cell line in mouse xenograft model after orally dosed once every other day at 100 mg/kg. It counts as functional. Conditions: HT-1080, route oral.

Description for MDA-MB-435: Antiproliferative activity against MDA-435 (human breast carcinoma) cell line.

The IC50 is the concentration that gives 50% inhibition. The low end stands for inhibition by little substance, the high end for a need for much substance. Turning to `COc1ccc2[nH]c(C(=O)NCCCCCCC(=O)NO)cc2c1`, the figures for the IC50 (in assay [1]; in the assay on HT-1080; in the assay with MDA-MB-435) were 6.5 nM, 720 nM and 1200 nM, respectively.

Turning to `COc1cc(OC)c2cc(C(=O)NCCCCCCC(=O)NO)[nH]c2c1`, the half-maximal inhibitory concentration (IC50) in assay [1] stood at 3.1 nM; with HT-1080, 260 nM; with MDA-MB-435, 600 nM.

Take `Cc1ccc2[nH]c(C(=O)NCCCCCCC(=O)NO)cc2c1`: the IC50 in assay [1] is 6.3 nM; in the assay on HT-1080 it was 200 nM; in the assay with MDA-MB-435, 170 nM.

As to `O=C(CCCCCCNC(=O)c1c[nH]c2ccccc12)NO`, the IC50 in assay [1] worked out at 37.5 nM.

Take `O=C(CCCCCCNC(=O)c1cc2cc(Br)ccc2[nH]1)NO`: the IC50 in assay [1] was found to be 3.5 nM; in the assay on HT-1080 it was 480 nM; in the assay on MDA-MB-435 it was 470 nM.

`O=C(CCCCCNC(=O)c1cccc2cc[nH]c12)NO` showed an IC50 in assay [1] of 37.6 nM.

In the case of `Cn1c(C(=O)NCCCCCCC(=O)NO)cc2ccccc21`, the IC50 in assay [1] came out at 47 nM; in the assay with HT-1080, 840 nM; in the assay on MDA-MB-435 it was 610 nM.

Consider `O=C(CCCCCNC(=O)c1cccc2[nH]ccc12)NO`, for which the IC50 in assay [1] is on record as 87.6 nM.

Take `O=C(CCCCCCNC(=O)c1cc2cc(OC(F)(F)F)ccc2[nH]1)NO`: the IC50 in assay [1] stood at 16 nM; with HT-1080, 890 nM; in the assay on MDA-MB-435 it was 300 nM.

For `O=C(CCCCCCNC(=O)c1cn(-c2ccc(F)cc2)c2ccccc12)NO`, the results for the IC50 (in assay [1]; in the assay on HT-1080; with MDA-MB-435) were 11.8 nM, 990 nM and 380 nM, respectively.

On to `O=C(CCCCCCNC(=O)c1cn(-c2ccccc2)c2ccccc12)NO`, for which the IC50 is 3.5 nM in assay [1], 2500 nM in the assay on HT-1080 and 760 nM in the assay on MDA-MB-435.

In turn, `O=C(CCCCCCNC(=O)c1cccc2[nH]ccc12)NO` had an IC50 in assay [1] of 80.3 nM.

Consider `O=C(CCCCCCNC(=O)c1ccc2cc[nH]c2c1)NO`, for which the IC50 in assay [1] came to 56.5 nM.

In assay [1], `O=C(CCCCCCNC(=O)c1ccc[nH]1)NO` came in with an IC50 of 524 nM.

With `O=C(CCCCCCNC(=O)c1ccc2[nH]ccc2c1)NO`, the IC50 in assay [1] stood at 31.4 nM.

For the molecule `Cn1cc(C(=O)NCCCCCCC(=O)NO)c2ccccc21`, the IC50 in assay [1] came to 56 nM; in the assay on HT-1080 it was 780 nM; in the assay on MDA-MB-435, 390 nM.

Turning to `O=C(CCCCCCNC(=O)c1cc2cc(OCc3ccccc3)ccc2[nH]1)NO`, the IC50 in assay [1] came to 13.6 nM; in the assay on HT-1080, 1500 nM; in the assay on MDA-MB-435, 800 nM.

`O=C(CCCCCCNC(=O)c1cccc2cc[nH]c12)NO` displayed an IC50 in assay [1] of 41 nM.

On to `O=C(CCCCCNC(=O)c1c[nH]c2ccccc12)NO`, for which the IC50 in assay [1] was 39.8 nM.

With `O=C(CCCCCCNC(=O)c1cc2ccccc2o1)NO`, the IC50 came out at 29.6 nM in assay [1], 760 nM in the assay with HT-1080 and 490 nM in the assay on MDA-MB-435.

Take `O=C(CCCCCCNC(=O)c1ccccn1)NO`: the IC50 in assay [1] stood at 1680 nM.

In general, inhibition in vivo refers to how much of the control response was suppressed. Lower therefore signals little suppression. In assay [1], `O=C(CCCCCCNC(=O)c1cc2ccccc2[nH]1)NO` returned a 50% inhibitory concentration (IC50) of 14.6 nM. This molecule returned an inhibition in vivo at 30 mg/kg in the assay on Mus musculus [2] of 36%. Further, in the assay with Mus musculus [3], the inhibition in vivo at 100 mg/kg turned out to be 39%.

`COc1ccc2cc(C(=O)NCCCCCCC(=O)NO)[nH]c2c1`: the figures for the IC50 (in assay [1]; with HT-1080; in the assay on MDA-MB-435) were 9.9 nM, 340 nM and 230 nM, respectively.

Take `COc1ccc2oc(C(=O)NCCCCCCC(=O)NO)cc2c1`: the figures for the IC50 (in assay [1]; in the assay with HT-1080; in the assay with MDA-MB-435) were 15 nM, 380 nM and 300 nM, respectively.

For `O=C(CCCCCCNC(=O)c1cn(-c2ccc(Br)cc2)c2ccccc12)NO`, the half-maximal inhibitory concentration (IC50) was found to be 18.9 nM in assay [1], 490 nM in the assay with HT-1080 and 340 nM in the assay on MDA-MB-435.

Regarding `CC1c2ccccc2CC1C(=O)NCCCCCCC(=O)NO` (stereo not given), the IC50 in assay [1] is 732 nM.

Consider `O=C(CCCCCCNC(=O)c1cn(Cc2ccccc2)c2ccccc12)NO`, for which the results for the IC50 (in assay [1]; with HT-1080; with MDA-MB-435) were 12 nM, 1900 nM and 850 nM, respectively.

In assay [1], `O=C(CCCCCNC(=O)c1ccc2cc[nH]c2c1)NO` came in with an IC50 of 36.4 nM.

For the molecule `O=C(CCCCCNC(=O)c1ccc2[nH]ccc2c1)NO`, the IC50 in assay [1] was 17 nM.

In turn, `Cc1c(C(=O)NCCCCCCC(=O)NO)oc2ccccc12` yielded an IC50 in assay [1] of 12.5 nM.

`O=C(CCCCCNC(=O)c1cc2ccccc2[nH]1)NO`: the IC50 in assay [1] amounted to 12.5 nM.

On to `COc1cccc2[nH]c(C(=O)NCCCCCCC(=O)NO)cc12`, for which the results for the IC50 (in assay [1]; with HT-1080; in the assay on MDA-MB-435) were 3.1 nM, 120 nM and 130 nM, respectively.

Take `O=C(CCCCCCNC(=O)c1cc2cc(F)ccc2[nH]1)NO`: the results for the IC50 (in assay [1]; in the assay with HT-1080; in the assay with MDA-MB-435) were 5.4 nM, 480 nM and 250 nM, respectively.

Regarding `O=C(CCCCCCNC(=O)c1cc2cc(Cl)ccc2o1)NO`, the IC50 is 15 nM in assay [1], 180 nM with HT-1080 and 190 nM in the assay with MDA-MB-435.

As for `COc1cccc2cc(C(=O)NCCCCCCC(=O)NO)oc12`, the IC50 in assay [1] came out at 17 nM; with HT-1080, 710 nM; with MDA-MB-435, 320 nM.

The values are drawn from ChEMBL document CHEMBL1136519, “Indole amide hydroxamic acids as potent inhibitors of histone deacetylases” (Bioorg Med Chem Lett, 2003).
